{"source": "patent US10800791B2", "about": "“Triazole ACC inhibitors and uses thereof” (Gilead Apollo, LLC, priority 2015, dated 2020)", "key": {"[1]": {"test_system": "C. albicans", "assay": "Antifungal Activity Assay (broth microtiter MIC), C. albicans", "assay_type": "cell-based, Candida albicans", "details": "Candida albicans, ATCC90028, 48 h", "outline": "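Colonies from 24 h Sabouraud dextrose agar plates (35° C) are suspended in RPMI 1640+MOPS and diluted to give 2.5×10^3 CFU/mL in the wells. Plates are set up per CLSI M27-A3. Visual MIC is recorded at 48 h.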"}, "[2]": {"test_system": "Diplodia maydis (Dm)", "assay": "Growth inhibition assay of fungal pathogens, Dm", "assay_type": "cell-based", "details": "Stenocarpella maydis, 48 h", "outline": "(§1)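 Spore suspension in 17% V8 liquid media; cpd final 50/10/2 or 2/0.4/0.08 ppm, 2% DMSO. OD600 + visual, 24 & 48 h; % inhibition at 48 h vs 2% DMSO ctrl.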"}, "[3]": {"test_system": "Collectotrichum graminicola (Cg)", "assay": "Growth inhibition assay of fungal pathogens, Cg", "assay_type": "cell-based", "details": "48 h", "outline": "as §1"}, "[4]": {"details": "Table 3a, ATCC 90028, 3 replicates, MIC recorded at 48 h, read-out: MIC, C. albicans ATCC 90028"}, "[5]": {"details": "Table 3b (additional results), ATCC 90028, 3 replicates, MIC recorded at 48 h, read-out: MIC, C. albicans ATCC 90028"}, "[6]": {"details": "Diplodia maydis, growth inhibition at 48 hours vs 2% DMSO control, read-out: Concentration at 90% Inhibition Dm"}, "[7]": {"details": "Diplodia maydis, growth inhibition vs 2% DMSO control at 48 hours, read-out: Concentration at 90% Inhibition Dm"}, "[8]": {"details": "Collectotrichum graminicola, growth inhibition at 48 hours vs 2% DMSO control, read-out: Concentration at 90% Inhibition Cg"}, "[9]": {"details": "Collectotrichum graminicola, growth inhibition vs 2% DMSO control at 48 hours, read-out: Concentration at 90% Inhibition Cg"}, "[10]": {"details": "read-out: MIC, C. albicans ATCC 90028, Table 3a, 3 replicates, MIC recorded at 48 h"}, "[11]": {"details": "read-out: MIC, C. albicans ATCC 90028, Table 3b (additional results), 3 replicates, MIC recorded at 48 h"}, "[12]": {"details": "read-out: Concentration at 90% Inhibition Dm, Diplodia maydis, growth inhibition at 48 hours vs 2% DMSO control"}, "[13]": {"details": "read-out: Concentration at 90% Inhibition Dm, Diplodia maydis, growth inhibition vs 2% DMSO control at 48 hours"}, "[14]": {"details": "read-out: Concentration at 90% Inhibition Cg, Collectotrichum graminicola, growth inhibition at 48 hours vs 2% DMSO control"}, "[15]": {"details": "read-out: Concentration at 90% Inhibition Cg, Collectotrichum graminicola, growth inhibition vs 2% DMSO control at 48 hours"}}, "note": "Where two headings read alike, the source gives them in different places.", "data": [{"smiles": "COc1ccc(F)cc1[C@H](Cn1c(=O)n(C(C)(C)C(=O)N2CC(O)C2)c(=O)c2c(C)c(-n3nccn3)sc21)OC1CCOCC1", "note": "[Compound I-26, (R)-1-(2-(5-fluoro-2-methoxyphenyl)-2-((tetrahydro-2H-pyran-4-yl)oxy)ethyl)-3-(1-(3-hydroxyazetidin-1-yl)-2-methyl-1-oxopropan-2-yl)-5-methyl-6-(2H-1,2,3-triazol-2-yl)thieno[2,3-d]pyrimidine-2,4(1H,3H)-dione]", "values": [{"measurement": "MIC", "setting": "[1]; [4]", "value": "2.1 to 4", "unit": "µg/mL"}, {"measurement": "MIC", "setting": "[1]; [5]", "value": "1.01 to 2", "unit": "µg/mL"}, {"measurement": "IC90", "setting": "[2]; [6]", "value": 10, "unit": "µg/mL"}, {"measurement": "IC90", "setting": "[2]; [7]", "value": "> 50", "unit": "µg/mL"}, {"measurement": "IC90", "setting": "[3]; [8]", "value": 10, "unit": "µg/mL"}, {"measurement": "IC90", "setting": "[3]; [9]", "value": "> 50", "unit": "µg/mL"}]}, {"smiles": "COc1ccc(F)cc1[C@H](Cn1c(=O)n(C(C)(C)C(=O)NC2CCC2)c(=O)c2c(C)c(-n3nccn3)sc21)OC1CCOCC1", "note": "[Compound I-27, (R)—N-cyclobutyl-2-(1-(2-(5-fluoro-2-methoxyphenyl)-2-((tetrahydro-2H-pyran-4-yl)oxy)ethyl)-5-methyl-2,4-dioxo-6-(2H-1,2,3-triazol-2-yl)-1,4-dihydrothieno[2,3-d]pyrimidin-3(2H)-yl)-2-methylpropanamide]", "values": [{"measurement": "MIC", "setting": "[1]; [4]", "value": "0.25 to 1", "unit": "µg/mL"}, {"measurement": "MIC", "setting": "[1]; [5]", "value": "0.25 to 1", "unit": "µg/mL"}, {"measurement": "IC90", "setting": "[2]; [6]", "value": 0.4, "unit": "µg/mL"}, {"measurement": "IC90", "setting": "[2]; [7]", "value": 0.4, "unit": "µg/mL"}, {"measurement": "IC90", "setting": "[3]; [8]", "value": 0.4, "unit": "µg/mL"}, {"measurement": "IC90", "setting": "[3]; [9]", "value": 0.4, "unit": "µg/mL"}]}, {"smiles": "COc1ccc(F)cc1[C@H](Cn1c(=O)n(C(C)(C)C(=O)NC2CCCCC2)c(=O)c2c(C)c(-n3nccn3)sc21)OC1CCOCC1", "note": "[Compound I-28, (R)—N-cyclohexyl-2-(1-(2-(5-fluoro-2-methoxyphenyl)-2-((tetrahydro-2H-pyran-4-yl)oxy)ethyl)-5-methyl-2,4-dioxo-6-(2H-1,2,3-triazol-2-yl)-1,4-dihydrothieno[2,3-d]pyrimidin-3(2H)-yl)-2-methylpropanamide]", "values": [{"measurement": "MIC", "setting": "[1]; [10]", "value": "0.25 to 1", "unit": "µg/mL"}, {"measurement": "MIC", "setting": "[1]; [11]", "value": "0.25 to 1", "unit": "µg/mL"}, {"measurement": "IC90", "setting": "[2]; [12]", "value": 0.4, "unit": "µg/mL"}, {"measurement": "IC90", "setting": "[2]; [13]", "value": 0.4, "unit": "µg/mL"}, {"measurement": "IC90", "setting": "[3]; [14]", "value": 2, "unit": "µg/mL"}, {"measurement": "IC90", "setting": "[3]; [15]", "value": 2, "unit": "µg/mL"}]}, {"smiles": "COc1ccc(F)cc1[C@H](Cn1c(=O)n(C(C)(C)C(=O)NCC(C)C)c(=O)c2c(C)c(-n3nccn3)sc21)OC1CCOCC1", "note": "[Compound I-29, (R)-2-(1-(2-(5-fluoro-2-methoxyphenyl)-2-((tetrahydro-2H-pyran-4-yl)oxy)ethyl)-5-methyl-2,4-dioxo-6-(2H-1,2,3-triazol-2-yl)-1,4-dihydro-thieno[2,3-d]pyrimidin-3(2H)-yl)-N-isobutyl-2-methylpropanamide]", "values": [{"measurement": "MIC", "setting": "[1]; [4]", "value": "0.25 to 1", "unit": "µg/mL"}, {"measurement": "MIC", "setting": "[1]; [5]", "value": "0.06 to 0.249", "unit": "µg/mL"}, {"measurement": "IC90", "setting": "[2]; [6]", "value": 0.4, "unit": "µg/mL"}, {"measurement": "IC90", "setting": "[2]; [7]", "value": 0.4, "unit": "µg/mL"}, {"measurement": "IC90", "setting": "[3]; [8]", "value": 0.4, "unit": "µg/mL"}, {"measurement": "IC90", "setting": "[3]; [9]", "value": 0.4, "unit": "µg/mL"}]}, {"smiles": "COc1ccc(F)cc1[C@H](Cn1c(=O)n(C(C)(C)C(N)=O)c(=O)c2c(C)c(-n3nccn3)sc21)OC1CCC(=O)CC1", "note": "[Compound I-31, (R)-2-(1-(2-(5-fluoro-2-methoxyphenyl)-2-((4-oxocyclo-hexyl)oxy)ethyl)-5-methyl-2,4-dioxo-6-(2H-1,2,3-triazol-2-yl)-1,4-dihydrothieno[2,3-d]pyrimidin-3(2H)-yl)-2-methylpropanamide]", "values": [{"measurement": "MIC", "setting": "[1]; [4]", "value": "0.25 to 1", "unit": "µg/mL"}, {"measurement": "MIC", "setting": "[1]; [5]", "value": "0.25 to 1", "unit": "µg/mL"}, {"measurement": "IC90", "setting": "[2]; [6]", "value": 2, "unit": "µg/mL"}, {"measurement": "IC90", "setting": "[2]; [7]", "value": 10, "unit": "µg/mL"}, {"measurement": "IC90", "setting": "[3]; [8]", "value": 10, "unit": "µg/mL"}, {"measurement": "IC90", "setting": "[3]; [9]", "value": "> 50", "unit": "µg/mL"}]}, {"smiles": "COc1ccc(F)cc1[C@H](Cn1c(=O)n(C(C)(C)C(=O)NC(C)C)c(=O)c2c(C)c(-n3nccn3)sc21)OC1CCC(=O)CC1", "note": "[Compound I-32, (R)-2-(1-(2-(5-fluoro-2-methoxyphenyl)-2-((4-oxocyclo-hexyl)oxy)ethyl)-5-methyl-2,4-dioxo-6-(2H-1,2,3-triazol-2-yl)-1,4-dihydro-thieno[2,3-d]pyrimidin-3(2H)-yl)-N-isopropyl-2-methylpropanamide]", "values": [{"measurement": "MIC", "setting": "[1]; [10]", "value": "0.06 to 0.24", "unit": "µg/mL"}, {"measurement": "MIC", "setting": "[1]; [11]", "value": "0.06 to 0.249", "unit": "µg/mL"}, {"measurement": "IC90", "setting": "[2]; [12]", "value": 0.08, "unit": "µg/mL"}, {"measurement": "IC90", "setting": "[2]; [13]", "value": 0.08, "unit": "µg/mL"}, {"measurement": "IC90", "setting": "[3]; [14]", "value": 2, "unit": "µg/mL"}, {"measurement": "IC90", "setting": "[3]; [15]", "value": 2, "unit": "µg/mL"}]}, {"smiles": "COc1ccc(F)cc1[C@H](Cn1c(=O)n(C(C)(C)C(=O)N2CCCC2)c(=O)c2c(C)c(-n3nccn3)sc21)OC1CCC(=O)CC1", "note": "[Compound I-33, (R)-1-(2-(5-fluoro-2-methoxyphenyl)-2-((4-oxocyclo-hexyl)oxy)ethyl)-5-methyl-3-(2-methyl-1-oxo-1-(pyrrolidin-1-yl)propan-2-yl)-6-(2H-1,2,3-triazol-2-yl)thieno[2,3-d]pyrimidine-2,4(1H,3H)-dione]", "values": [{"measurement": "MIC", "setting": "[1]; [4]", "value": "0.25 to 1", "unit": "µg/mL"}, {"measurement": "MIC", "setting": "[1]; [5]", "value": "0.25 to 1", "unit": "µg/mL"}, {"measurement": "IC90", "setting": "[2]; [6]", "value": 0.4, "unit": "µg/mL"}, {"measurement": "IC90", "setting": "[2]; [7]", "value": 0.4, "unit": "µg/mL"}, {"measurement": "IC90", "setting": "[3]; [8]", "value": 0.4, "unit": "µg/mL"}, {"measurement": "IC90", "setting": "[3]; [9]", "value": 0.4, "unit": "µg/mL"}]}]}
